# Where two headings read alike, the source gives them in different places.
# Key:
# [1] = target: T1, rabbit skeletal muscle myosin S1 (SkS1) (Oryctolagus cuniculus, UniProt Q28641); experiment: Steady state MgATPase, NADH-coupled assay, SkS1; type: biochemical
# T1 construct: SkS1 (rabbit skeletal S1 fragment); from tissue; host or cells: rabbit skeletal muscle
# Procedure: MgATPase activities of 500 nM (for basal ATPase) or 50 nM (for actin activated ATPase) SkS1 (rabbit skeletal S1 fragment) 23 and 1 μM (for basal ATPase) or 300 nM (for actin activated ATPase) DdMD were measured at increasing concentrations of neurelaxin-A in the absence or in the presence of 45 μM actin for SkS1 or 15 μM actin for DdMD. Measurements were carried out using a pyruvate kinase/lactate dehydrogenase coupled assay (NADH-coupled assay) (Kovacs M. et al., J. Biol. Chem. 2004, 279 (34), pp 35557-35563) at 25° C. or 20° C. in case of SkS1 or DdMD, respectively. Myosin and actin together with the indicated concentration of the inhibitor were pre-incubated for 5 minutes at room temperature and the measurements were initiated with 1 mM ATP. Data were corrected for background ATPase activity of actin. G-actin was prepared accordingly from rabbit skeletal muscle (Spudich, J. A. & Watt, S.; The Journal of Biological Chemistry 246, 1971, pp 4866-4871) and polymerized by 2 mM MgCl2 for 1 hour at room temperature. Measurements were performed in low salt buffer containing 5 mM HEPES, 2 mM MgCl2, 0.1 mM EGTA and 2 mM DTT at pH 7.2 or assay buffer containing 20 mM HEPES, 40 mM NaCl, 4 mM MgCl2 at pH 7.3 for basal ATPase activity measurements with DdMD.
# The basal and actin activated ATPase activities of rabbit skeletal muscle myosin S1 (SkS1) and Dictyostelium discoideum myosin 2 motor domain (DdMD) were measured at increasing concentrations of neurelaxin-A (FIGS. 3A and 3B).
# [2] = system: embryonic mouse hippocampal cells; experiment: Neurite growth in embryonic hippocampal cell culture; type: cell-based; details: 50 μM
# Procedure: Embryonic mouse hippocampal cells were isolated from 17-day-old embryo and cultured on poly-D-lysine coated dish in neurobasal medium complemented with B27, FCS and glutamax for 20 hours.
# The growth of neurites was monitored by phase contrast microscopy after the addition of 50 μM neurelaxin-A (Imaging buffer: Extracell isotonic salt solution, buffered with 5 mM HEPES).
# [3] = Photostability under 480±10 nm irradiation; type: physicochemical; details: 5 μM, 480±10 nm for 0, 5, 10 and 15 minutes
# Procedure: Fluorescence emission spectra (λexc=350 nm) were recorded in assay buffer containing 0.1% DMSO applying the inhibitors at 5 μM concentrations. The photoconversion measurements were carried out using 5 μM neurelaxin-A in assay buffer and irradiating the samples at 480±10 nm for 0, 5, 10 and 15 minutes using a Fluorescence Spectrometer (F900, Edinburgh Instruments) equipped with a 450 W Xenon Lamp. Their absorbance spectra were measured at each time point.
# Neurelaxin-A's photostability was measured by irradiating the compound in assay buffer at 480±10 nm for 0, 5, 10 and 15 minutes and recorded the absorption spectra afterwards (FIG. 2C).
# [4] = system: EGFP-α-tubulin H2B-mCherry HeLa Kyoto cells; experiment: HeLa cell toxicity, 12-hour confocal time-lapse imaging; type: cell-based, human; details: 50 μM, 12 hours imaging
# Procedure: For phototoxicity experiments, confocal time-lapse imaging of HeLa Kyoto H2B-mCherry eGFP-α-tubulin cells for 12 hours was performed in DMEM further supplemented with 25 mM HEPES in order to achieve CO2 independent media. Confocal time-lapse imaging was performed on a Zeiss LSM 710 using a Plan Apo 20×/0.8 objective, with the following parameters: 2% laser intensity at λexc=488 nm, 3% laser intensity at λexc=543 nm, 1.2× zoom, average 4, line step 1, 1000×1000 pixels, 0.35 μm pixel size, 0.65 μs dwell time, 3 slice/z-stack with 7 μm between slices at every 10 minutes.
# To test the cytotoxicity of neurelaxin-A in live-cell fluorescence microscopy, time-lapse EGFP-α-tubulin H2B-mCherry labeled HeLa Kyoto cells were imaged in a confocal microscope (FIG. 4a).
# Cells were treated with 50 μM neurelaxin-A and imaged for 12 hours applying 3 z-sections every 10 minutes.
# [5] = system: cannabinoid-induced working memory loss; experiment: Novel object recognition (NOR) test with CP55,940; type: in vivo
# Procedure: In this experiment, a novel object recognition (NOR) test was performed.
# In this test animals are presented to two objects and it will explore them for a while. After, one of the objects is changed for a new and different one. Under normal circumstances animals will be attracted to the novel object and will spend more time exploring it, by comparison to the older and already known object. Animals with memory deficit will explore both objects equally.
# The synthetic cannabinoid CB1R agonist CP55,940 is administrated 1 hour prior to the familiarization step. Thirty minutes prior to the familiarization animals are either treated or not with neurelaxin-A.
# [6] = system: HeLa cells; experiment: HeLa wound healing (motility) assay; type: cell-based, human; details: 20 μM, after 24 h, uncoated glass; control 30.6±5.4%
# Procedure: For wound healing assays, 200 μl of HeLa cells were plated on 35 mm borosilicate glass imaging dishes at 300,000 cells/ml concentrations and incubated for 24 hours. Prior to wounding, cells were incubated in 20 μM of neurelaxin-A for an hour. After one hour, scratches were made with pipette tips in monolayer cultures and the motility of cells for occupying the wound was monitored for 24 hours with a Foculus Digital Camera (IEEE1394). Analysis of cell motility was carried out by ImageJ, by measuring the distance between two lines fitted on the two sides of the approaching cell edges created by the pipette tips.
# To test the effect of neurelaxin-A on the motility of HeLa cells on uncoated glass surface, wound-healing assays were carried out in the absence and in the presence of 20 μM concentrations of the inhibitor.
# After 24 h, the percent of migration was measured for each sample. The control corresponds to a sample in the absence of inhibitor.
# T1 sequence (Q28641 1-843 limits assumed): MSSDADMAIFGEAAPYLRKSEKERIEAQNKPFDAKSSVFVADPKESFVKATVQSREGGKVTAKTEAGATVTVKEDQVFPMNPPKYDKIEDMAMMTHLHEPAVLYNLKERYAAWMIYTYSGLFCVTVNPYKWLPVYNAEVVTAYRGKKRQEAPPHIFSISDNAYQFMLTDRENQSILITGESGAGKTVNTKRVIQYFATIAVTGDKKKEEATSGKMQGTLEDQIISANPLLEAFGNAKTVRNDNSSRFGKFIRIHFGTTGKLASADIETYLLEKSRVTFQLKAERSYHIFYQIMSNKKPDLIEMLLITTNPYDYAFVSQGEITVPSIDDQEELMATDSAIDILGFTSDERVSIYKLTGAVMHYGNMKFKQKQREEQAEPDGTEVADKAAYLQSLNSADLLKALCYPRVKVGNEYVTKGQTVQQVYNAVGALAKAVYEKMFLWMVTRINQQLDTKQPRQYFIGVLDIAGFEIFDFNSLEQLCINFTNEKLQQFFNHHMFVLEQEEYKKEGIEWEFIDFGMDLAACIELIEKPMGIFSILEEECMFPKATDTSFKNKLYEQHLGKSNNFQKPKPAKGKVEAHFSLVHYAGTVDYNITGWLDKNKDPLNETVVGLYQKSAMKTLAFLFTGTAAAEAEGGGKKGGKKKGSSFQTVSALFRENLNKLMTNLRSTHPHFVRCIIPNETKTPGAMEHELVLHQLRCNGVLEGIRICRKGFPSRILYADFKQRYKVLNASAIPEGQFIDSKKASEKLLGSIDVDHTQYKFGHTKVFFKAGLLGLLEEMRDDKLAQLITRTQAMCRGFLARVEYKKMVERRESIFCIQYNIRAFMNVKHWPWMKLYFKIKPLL
# T1 sequence (P02602 whole entry partner, the tested form may be a part): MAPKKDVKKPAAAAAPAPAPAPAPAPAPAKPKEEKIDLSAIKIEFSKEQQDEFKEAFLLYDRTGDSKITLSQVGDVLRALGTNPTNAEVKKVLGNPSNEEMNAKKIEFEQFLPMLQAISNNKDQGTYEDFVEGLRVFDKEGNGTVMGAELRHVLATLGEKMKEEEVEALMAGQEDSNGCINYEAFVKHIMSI
smiles,measurement,setting,value
"Cc1ccc2c(c1)C(=O)C1(O)CCN(c3ccc(N)cc3)C1=N2 (centres unmarked) [Neurelaxin-A, 1-(4-aminophenyl)-3a-hydroxy-6-methyl-3,3a-dihydro-1H-pyrrolo[2,3-b]quinolin-4(2H)-one]","maximal extent of inhibition, actin activated ATPase of SkS1",[1]; actin activated,98-100%
same,IC50,"[1]; actin activated, 50 nM SkS1, 45 μM actin, 25° C., read-out: IC50 actin activated ATPase activity of SkS1",0.47 ± 0.06 µM
same,"maximal extent of inhibition, basal ATPase of SkS1",[1]; basal,98-100%
same,IC50,"[1]; basal, 500 nM SkS1, 25° C., read-out: IC50 basal ATPase of SkS1",1.3 ± 0.1 µM
same,rate of neurite growth,[2],1 μm/min
same,rate of neurite growth,[2]; listed as neurelaxin-A,approximately 1 μm/min
same,photostability: absorption spectrum after irradiation,[3],has not been altered
same,signs of toxicity in HeLa Kyoto cells,[4],did not show any signs of toxicity
same,NOR test: effect on memory without cannabinoid,"[5]; animals non-treated with CP55,940",does not impact negatively the memory
same,NOR test: memory after cannabinoid exposure,"[5]; pre-treated animals, CP55,940 exposure",are not affected by the cannabinoid exposure
same,relative migration of HeLa cells (100% = total diameter of the wound),[6],62.6±3.6%

# — US10858357B2, “Water-soluble myosin 2 inhibitors for the treatment of neurological, neuropathic or psychiatric diseases” (PARIS SCIENCES ET LETTRES-QUARTIER LATIN, priority 2016, dated 2020)
